tested on: TNF-α production from human whole blood; experiment: Inhibition of TNF-α production from human whole blood (hWBA), LPS stimulated, ELISA; assay type: cell-based; conditions: Homo sapiens, 3.5 h, human whole blood diluted 1:1, LPS stimulated, 3.5 h, TNF-α by ELISA; read-out: hWBA (IC50)

Row | SMILES | IC50
1 | COc1ccc2c(c1)C(=O)N(C[C@@]1(c3cc4nc(N5C(=O)CC[C@@H]5CO)ccc4o3)NC(=O)NC1=O)C2 [Compound 2157] | 382 nM
2 | COc1ccc2c(c1)C(=O)N(C[C@@]1(c3cc4nc(N5CCCC5)ccc4o3)NC(=O)NC1=O)C2 [Compound 2106] | 669 nM
3 | COc1ccc2c(c1)C(=O)N(C[C@@]1(c3cc4nc(N5CCNC5=O)ccc4o3)NC(=O)NC1=O)C2 [Compound 2127] | 221 nM
4 | CN(C)C1CCN(c2ccc3oc(C4(CN5Cc6ccc(Cl)cc6C5=O)NC(=O)NC4=O)cc3n2)CC1 (centres unmarked) [Compound 1291] | 1400 nM
5 | COc1ccc2c(c1)C(=O)N(C[C@@]1(c3cc4c(N5CCNCC5)nccc4o3)NC(=O)NC1=O)C2 [Compound 2279] | 234 nM
6 | COc1ccc2c(c1)C(=O)N(C[C@@]1(c3cc4cc(CN5CCNCC5)ccc4o3)NC(=O)NC1=O)C2 [Compound 2186] | 345 nM
7 | COc1ccc2c(c1)C(=O)N(C[C@@]1(c3cc4nc(Nc5ccncc5)ccc4o3)NC(=O)NC1=O)C2 [Compound 2136] | 247 nM
8 | COc1ccc2c(c1)C(=O)N(C[C@@]1(c3cc4cc(CN)ccc4o3)NC(=O)NC1=O)C2 [Compound 2182] | 532 nM
9 | COc1ccc2c(c1)C(=O)N(C[C@@]1(c3cc4nc(N5CCNCC5)ccc4o3)NC(=O)NC1=O)C2 [Compound 2126] | 194 nM
10 | COc1ccc2c(c1)C(=O)N(C[C@@]1(c3cc4cc(C(=O)NCCN(C)CCN)c(F)cc4o3)NC(=O)NC1=O)C2 [Compound 1279] | 504 nM
11 | CCN1CCN(c2ccc3oc([C@]4(CN5Cc6ccc(OC)c(F)c6C5=O)NC(=O)NC4=O)cc3n2)C[C@@H]1C [Compound 1294] | 275 nM
12 | COc1ccc2c(c1)C(=O)N(C[C@@]1(c3cc4nc(N5CCC(OC)(OC)CC5)ccc4o3)NC(=O)NC1=O)C2 [Compound 2109] | 161 nM
13 | O=C1NC(=O)C(CN2Cc3ccccc3C2=O)(c2ccc(Br)cc2)N1 (centres unmarked) [Compound 1296] | > 10000 nM

Continued, values first:

Row | IC50 | SMILES
14 | 294 nM | COc1ccc2c(c1)C(=O)N(C[C@@]1(c3cc4cc(-c5cn[nH]c5)ccc4o3)NC(=O)NC1=O)C2 [Compound 2201]
15 | 1070 nM | COc1ccc2c(c1)C(=O)N(C[C@@]1(c3cc4c(C(F)(F)F)nccc4o3)NC(=O)NC1=O)C2 [Compound 2270]
16 | 515 nM | COc1ccc2c(c1)C(=O)N(C[C@@]1(c3cc4cc(-c5c(N)noc5C)ccc4o3)NC(=O)NC1=O)C2 [Compound 2261]
17 | 2990 nM | O=C1NC(=O)[C@](CN2Cc3ccc(O)cc3C2=O)(c2cc3cnccc3o2)N1 [Compound 2188]
18 | 143 nM | COc1ccc2c(c1)C(=O)N(C[C@@]1(c3cc4cc(NC(N)=O)ccc4o3)NC(=O)NC1=O)C2 [Compound 2221]
19 | 2670 nM | COc1ccc2c(c1)C(=O)N(C[C@@]1(c3cc4cnc(N5CCCC5=O)cc4o3)NC(=O)NC1=O)C2 [Compound 2253]
20 | 1000 nM | COc1ccc2c(c1F)C(=O)N(C[C@@]1(c3cc4nc(-c5cccnc5)ccc4o3)NC(=O)NC1=O)C2 [Compound 2218]
21 | ≥ 1000 nM | COc1ccc2c(c1)C(=O)N(C[C@@]1(c3cc4c(o3)CCNC4)NC(=O)NC1=O)C2 [Compound 2262]
22 | 1780 nM | COc1ccc2c(c1)C(=O)N(C[C@@]1(c3ccc(-c4ccc(C5(C)NC(=O)NC5=O)nc4)cc3)NC(=O)NC1=O)C2 (some centres unmarked) [Compound 2206]

same assay, conditions: Homo sapiens, LPS-stimulated human whole blood, TNF-α by ELISA; read-out: hWBA (IC50)

Row | IC50 | SMILES
23 | 727 nM | COc1ccc2c(c1F)C(=O)N(C[C@@]1(c3cc4c(F)cnc(C)c4o3)NC(=O)NC1=O)C2 [Compound 1314]
24 | 1290 nM | COc1ccc2c(c1)C(=O)N(C[C@@]1(c3cc4nc(-c5cnc(N6CCCC6)nc5)ccc4o3)NC(=O)NC1=O)C2 [Compound 1505]
25 | 671 nM | CCNC(=O)Nc1ccc2oc([C@]3(CN4Cc5ccc(OC)cc5C4=O)NC(=O)NC3=O)cc2n1 [Compound 1939]
26 | 841 nM | COC(=O)c1cnc2cc([C@]3(CN4Cc5ccc(OC)cc5C4=O)NC(=O)NC3=O)oc2c1 [Compound 1928]

Row | SMILES | IC50
27 | COc1ccc2c(c1)C(=O)N(C[C@@]1(c3cc4ncc(C5=NCCN5)cc4o3)NC(=O)NC1=O)C2 [Compound 1942] | 3880 nM
28 | COc1ccc2c(c1F)C(=O)N(C[C@@]1(c3cc4nc(N5CCOCC5)c(F)cc4o3)NC(=O)NC1=O)C2 [Compound 1913] | 657 nM

molecular target: T1, purified catalytic domain of recombinant human TACE (rhTACEc) (Homo sapiens, UniProt P78536, N452Q/S266A); experiment: TACE kinetic assay: cleavage of internally quenched peptide substrate TNF-FRET 2 (Ki); assay type: biochemical; conditions: Ki, TNF-FRET 2 substrate
T1 construct: 6xHis (C); made in house; host or cells: baculovirus/Hi5 insect cells
T1 sequence (P78536 215-477 S266A/N452Q): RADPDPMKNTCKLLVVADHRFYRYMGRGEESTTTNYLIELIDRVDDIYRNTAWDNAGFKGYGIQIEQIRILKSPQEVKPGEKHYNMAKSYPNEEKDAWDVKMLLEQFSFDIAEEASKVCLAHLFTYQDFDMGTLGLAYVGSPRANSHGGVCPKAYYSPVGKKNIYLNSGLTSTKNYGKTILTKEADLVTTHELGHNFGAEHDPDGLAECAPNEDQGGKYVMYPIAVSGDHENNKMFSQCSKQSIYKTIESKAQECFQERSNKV

Row | SMILES | Ki
29 | COc1ccc2c(c1)C(=O)N(C[C@@]1(c3cc4ncc(C5=NCCN5)cc4o3)NC(=O)NC1=O)C2 [Compound 1942] | 2.09 nM
30 | COc1ccc2c(c1F)C(=O)N(C[C@@]1(c3cc4nc(N5CCOCC5)c(F)cc4o3)NC(=O)NC1=O)C2 [Compound 1913] | 0.53 nM
31 | COc1ccc2c(c1)C(=O)N(C[C@@]1(c3cc4c(N5CCNCC5)nccc4o3)NC(=O)NC1=O)C2 [Compound 2279] | 2.55 nM

same assay, conditions: TNF-FRET 2 substrate, read-out: Ki

Row | SMILES | Ki
32 | COc1ccc2c(c1)C(=O)N(C[C@@]1(c3cc4nc(N5C(=O)CC[C@@H]5CO)ccc4o3)NC(=O)NC1=O)C2 [Compound 2157] | 0.731 nM
33 | COc1ccc2c(c1F)C(=O)N(C[C@@]1(c3cc4c(F)cnc(C)c4o3)NC(=O)NC1=O)C2 [Compound 1314] | 1.2 nM
34 | COc1ccc2c(c1)C(=O)N(C[C@@]1(c3cc4nc(N5CCCC5)ccc4o3)NC(=O)NC1=O)C2 [Compound 2106] | 0.422 nM
35 | COc1ccc2c(c1)C(=O)N(C[C@@]1(c3cc4nc(N5CCNC5=O)ccc4o3)NC(=O)NC1=O)C2 [Compound 2127] | 0.435 nM
36 | COc1ccc2c(c1)C(=O)N(C[C@@]1(c3cc4nc(-c5cnc(N6CCCC6)nc5)ccc4o3)NC(=O)NC1=O)C2 [Compound 1505] | 0.6 nM
37 | CCNC(=O)Nc1ccc2oc([C@]3(CN4Cc5ccc(OC)cc5C4=O)NC(=O)NC3=O)cc2n1 [Compound 1939] | 1.12 nM
38 | CN(C)C1CCN(c2ccc3oc(C4(CN5Cc6ccc(Cl)cc6C5=O)NC(=O)NC4=O)cc3n2)CC1 (centres unmarked) [Compound 1291] | 1.33 nM
39 | COC(=O)c1cnc2cc([C@]3(CN4Cc5ccc(OC)cc5C4=O)NC(=O)NC3=O)oc2c1 [Compound 1928] | 0.52 nM
40 | COc1ccc2c(c1)C(=O)N(C[C@@]1(c3cc4cc(CN5CCNCC5)ccc4o3)NC(=O)NC1=O)C2 [Compound 2186] | 0.539 nM
41 | COc1ccc2c(c1)C(=O)N(C[C@@]1(c3cc4nc(Nc5ccncc5)ccc4o3)NC(=O)NC1=O)C2 [Compound 2136] | 0.427 nM
42 | COc1ccc2c(c1)C(=O)N(C[C@@]1(c3cc4cc(CN)ccc4o3)NC(=O)NC1=O)C2 [Compound 2182] | 0.79 nM
43 | COc1ccc2c(c1)C(=O)N(C[C@@]1(c3cc4nc(N5CCNCC5)ccc4o3)NC(=O)NC1=O)C2 [Compound 2126] | 0.661 nM
44 | COc1ccc2c(c1)C(=O)N(C[C@@]1(c3cc4cc(C(=O)NCCN(C)CCN)c(F)cc4o3)NC(=O)NC1=O)C2 [Compound 1279] | 1 nM
45 | CCN1CCN(c2ccc3oc([C@]4(CN5Cc6ccc(OC)c(F)c6C5=O)NC(=O)NC4=O)cc3n2)C[C@@H]1C [Compound 1294] | 1.1 nM
46 | COc1ccc2c(c1)C(=O)N(C[C@@]1(c3cc4nc(N5CCC(OC)(OC)CC5)ccc4o3)NC(=O)NC1=O)C2 [Compound 2109] | 0.75 nM
47 | O=C1NC(=O)C(CN2Cc3ccccc3C2=O)(c2ccc(Br)cc2)N1 (centres unmarked) [Compound 1296] | 7 nM

Next, values leading:

Row | Ki | SMILES
48 | 0.345 nM | COc1ccc2c(c1)C(=O)N(C[C@@]1(c3cc4cc(-c5cn[nH]c5)ccc4o3)NC(=O)NC1=O)C2 [Compound 2201]
49 | 0.441 nM | COc1ccc2c(c1)C(=O)N(C[C@@]1(c3cc4c(C(F)(F)F)nccc4o3)NC(=O)NC1=O)C2 [Compound 2270]
50 | 0.347 nM | COc1ccc2c(c1)C(=O)N(C[C@@]1(c3cc4cc(-c5c(N)noc5C)ccc4o3)NC(=O)NC1=O)C2 [Compound 2261]
51 | 2.26 nM | O=C1NC(=O)[C@](CN2Cc3ccc(O)cc3C2=O)(c2cc3cnccc3o2)N1 [Compound 2188]
52 | 0.099 nM | COc1ccc2c(c1)C(=O)N(C[C@@]1(c3cc4cc(NC(N)=O)ccc4o3)NC(=O)NC1=O)C2 [Compound 2221]
53 | 0.972 nM | COc1ccc2c(c1)C(=O)N(C[C@@]1(c3cc4cnc(N5CCCC5=O)cc4o3)NC(=O)NC1=O)C2 [Compound 2253]
54 | 0.232 nM | COc1ccc2c(c1F)C(=O)N(C[C@@]1(c3cc4nc(-c5cccnc5)ccc4o3)NC(=O)NC1=O)C2 [Compound 2218]
55 | 6.54 nM | COc1ccc2c(c1)C(=O)N(C[C@@]1(c3cc4c(o3)CCNC4)NC(=O)NC1=O)C2 [Compound 2262]
56 | 0.82 nM | COc1ccc2c(c1)C(=O)N(C[C@@]1(c3ccc(-c4ccc(C5(C)NC(=O)NC5=O)nc4)cc3)NC(=O)NC1=O)C2 (some centres unmarked) [Compound 2206]

Reference: patent publication US8569336B2, “Compounds for the treatment of inflammatory disorders” (priority 2008, dated 2013)
